From ChEMBL document CHEMBL1201862, “PubChem BioAssay data set” (2004)
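Step 1: Grow cells in 96-well plates. Step 2: Expose to compound for 48 hours at 5 concentrations. Step 3: Interpolate endpoints linearly; if unreached, use highest concentration. The concentration for 50% growth inhibition is given as GI50.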 The source made the active and inactive calls. Rule as the data show it: active = GI50 up to about 1.1 µM and inactive = higher.

Experiments:
Assay in all cases: NCI tumour cell line growth inhibition, 48 h
HCC 2998 = test system: HCC 2998
CAKI-1 = test system: CAKI-1
A498 = test system: A498
SF-539 = test system: SF-539
HOP-92 = test system: HOP-92
NCI/ADR-RES = test system: NCI/ADR-RES
DU-145 = test system: DU-145
IGROV-1 = test system: IGROV-1
UACC-62 = test system: UACC-62
OVCAR-5 = test system: OVCAR-5
SNB-19 = test system: SNB-19
SK-MEL-2 = test system: SK-MEL-2
BT-549 = test system: BT-549
NCI-H460 = test system: NCI-H460
CCRF-CEM = test system: CCRF-CEM
EKVX = test system: EKVX
OVCAR-4 = test system: OVCAR-4
K562 = test system: K562
SF-295 = test system: SF-295
MCF7 = test system: MCF7
KM12 = test system: KM12
TK-10 = test system: TK-10
HCT-116 = test system: HCT-116
SN12C = test system: SN12C
HCT-15 = test system: HCT-15
HOP-62 = test system: HOP-62
OVCAR-8 = test system: OVCAR-8
LOX IMVI = test system: LOX IMVI
MOLT-4 = test system: MOLT-4
UACC-257 = test system: UACC-257
ACHN = test system: ACHN
OVCAR-3 = test system: OVCAR-3
MDA-MB-435 = test system: MDA-MB-435
SK-MEL-5 = test system: SK-MEL-5
RXF 393 = test system: RXF 393
MDA-N = test system: MDA-N
SF-268 = test system: SF-268
COLO 205 = test system: COLO 205
SNB-75 = test system: SNB-75
HL-60 = test system: HL-60
SR = test system: SR
NCI-H226 = test system: NCI-H226
SK-MEL-28 = test system: SK-MEL-28
UO-31 = test system: UO-31
PC-3 = test system: PC-3
HT-29 = test system: HT-29
SW-620 = test system: SW-620
Malme-3M = test system: Malme-3M
SK-OV-3 = test system: SK-OV-3
A549 = test system: A549
MDA-MB-231 = test system: MDA-MB-231
786-0 = test system: 786-0
M14 = test system: M14
Hs-578T = test system: Hs-578T
NCI-H23 = test system: NCI-H23
NCI-H522 = test system: NCI-H522
U-251 = test system: U-251
RPMI-8226 = test system: RPMI-8226

Cc1cc(NS(=O)(=O)c2ccc(NO)cc2)no1
GI50 (HCC 2998): > 100 µM (inactive) | GI50 (CAKI-1): > 100 µM (inactive) | GI50 (A498): > 100 µM (inactive) | GI50 (SF-539): 35.1 µM (inactive) | GI50 (HOP-92): > 100 µM (inactive) | GI50 (NCI/ADR-RES): 39.5 µM (inactive) | GI50 (DU-145): > 100 µM (inactive) | GI50 (IGROV-1): > 100 µM (inactive) | GI50 (UACC-62): 56.6 µM (inactive) | GI50 (OVCAR-5): > 100 µM (inactive) | GI50 (SNB-19): > 100 µM (inactive) | GI50 (SK-MEL-2): > 100 µM (inactive) | GI50 (BT-549): > 100 µM (inactive) | GI50 (NCI-H460): > 100 µM (inactive) | GI50 (CCRF-CEM): 8.65 µM (inactive) | GI50 (EKVX): > 100 µM (inactive) | GI50 (OVCAR-4): 67.3 µM (inactive) | GI50 (K562): 14.7 µM (inactive) | GI50 (SF-295): > 10 µM (inactive) | GI50 (MCF7): 22 µM (inactive) | GI50 (KM12): 63.4 µM (inactive) | GI50 (TK-10): > 100 µM (inactive) | GI50 (HCT-116): 28.5 µM (inactive) | GI50 (SN12C): 19.5 µM (inactive) | GI50 (HCT-15): 32.4 µM | GI50 (HOP-62): > 100 µM (inactive) | GI50 (OVCAR-8): 41.1 µM (inactive) | GI50 (LOX IMVI): 17.9 µM (inactive) | GI50 (MOLT-4): 43 µM (inactive) | GI50 (UACC-257): > 100 µM (inactive) | GI50 (ACHN): > 100 µM (inactive) | GI50 (OVCAR-3): > 100 µM (inactive) | GI50 (MDA-MB-435): 19.5 µM (inactive) | GI50 (SK-MEL-5): > 100 µM (inactive) | GI50 (RXF 393): > 100 µM (inactive) | GI50 (MDA-N): 20.7 µM (inactive) | GI50 (SF-268): > 100 µM (inactive) | GI50 (COLO 205): > 100 µM (inactive) | GI50 (SNB-75): 43.7 µM (inactive) | GI50 (HL-60): > 100 µM (inactive) | GI50 (SR): 23.4 µM (inactive) | GI50 (NCI-H226): > 100 µM (inactive) | GI50 (SK-MEL-28): > 100 µM (inactive) | GI50 (UO-31): > 100 µM (inactive) | GI50 (PC-3): > 100 µM (inactive) | GI50 (HT-29): 41.3 µM (inactive) | GI50 (SW-620): 29.2 µM (inactive) | GI50 (Malme-3M): > 100 µM (inactive) | GI50 (SK-OV-3): > 100 µM (inactive) | GI50 (A549): > 100 µM (inactive) | GI50 (MDA-MB-231): 34.7 µM (inactive) | GI50 (786-0): 33 µM (inactive) | GI50 (M14): 70.6 µM (inactive) | GI50 (Hs-578T): > 100 µM (inactive)

Nc1ncnc2c1ncn2C1OC(CO)CC1O (stereo unspecified)
GI50 (HCC 2998): 19 µM (inactive) | GI50 (CAKI-1): > 100 µM (inactive) | GI50 (NCI-H23): 90.8 µM (inactive) | GI50 (SF-539): 34.7 µM (inactive) | GI50 (HOP-92): 40.4 µM (inactive) | GI50 (NCI/ADR-RES): 20.3 µM (inactive) | GI50 (DU-145): 30.1 µM (inactive) | GI50 (IGROV-1): > 100 µM (inactive) | GI50 (UACC-62): 36.6 µM (inactive) | GI50 (OVCAR-5): > 100 µM (inactive) | GI50 (SNB-19): 26.9 µM (inactive) | GI50 (BT-549): 29.9 µM (inactive) | GI50 (CCRF-CEM): 34.3 µM (inactive) | GI50 (EKVX): 40.6 µM (inactive) | GI50 (OVCAR-4): > 100 µM (inactive) | GI50 (K562): 7.93 µM (inactive) | GI50 (SF-295): 58.7 µM (inactive) | GI50 (MCF7): 6.08 µM (inactive) | GI50 (KM12): 22 µM (inactive) | GI50 (TK-10): > 100 µM (inactive) | GI50 (HCT-116): 20 µM (inactive) | GI50 (SN12C): 25.6 µM (inactive) | GI50 (HCT-15): 17.6 µM | GI50 (NCI-H522): 18 µM (inactive) | GI50 (HOP-62): 29.3 µM (inactive) | GI50 (OVCAR-8): 16.6 µM (inactive) | GI50 (LOX IMVI): 21.4 µM (inactive) | GI50 (MOLT-4): > 100 µM (inactive) | GI50 (UACC-257): > 100 µM (inactive) | GI50 (ACHN): > 100 µM (inactive) | GI50 (OVCAR-3): 39.3 µM (inactive) | GI50 (MDA-MB-435): > 10 µM (inactive) | GI50 (SK-MEL-5): > 100 µM (inactive) | GI50 (U-251): 41.7 µM (inactive) | GI50 (RXF 393): > 100 µM (inactive) | GI50 (MDA-N): 38.7 µM (inactive) | GI50 (SF-268): 53.7 µM (inactive) | GI50 (COLO 205): 93.5 µM (inactive) | GI50 (SNB-75): 35.2 µM (inactive) | GI50 (HL-60): > 10 µM (inactive) | GI50 (SR): > 100 µM (inactive) | GI50 (NCI-H226): > 100 µM (inactive) | GI50 (SK-MEL-28): 25.6 µM (inactive) | GI50 (UO-31): > 100 µM (inactive) | GI50 (PC-3): 9.27 µM (inactive) | GI50 (SW-620): 35.1 µM (inactive) | GI50 (SK-OV-3): 51.9 µM (inactive) | GI50 (A549): 75.7 µM (inactive) | GI50 (MDA-MB-231): 17.9 µM (inactive) | GI50 (786-0): 17.5 µM (inactive) | GI50 (M14): 38.2 µM (inactive) | GI50 (Hs-578T): 25.5 µM (inactive)

Cc1sc2nc(-c3cccc([N+](=O)[O-])c3)c(/C=N/N=C(N)N)n2c1C
GI50 (HCC 2998): 1.32 µM (inactive) | GI50 (CAKI-1): 1.82 µM (inactive) | GI50 (NCI-H23): 1.82 µM (inactive) | GI50 (A498): 1.55 µM (inactive) | GI50 (SF-539): 1.95 µM (inactive) | GI50 (HOP-92): 1.46 µM (inactive) | GI50 (NCI/ADR-RES): 8.13 µM (inactive) | GI50 (DU-145): 1.86 µM (inactive) | GI50 (IGROV-1): 1.32 µM (inactive) | GI50 (UACC-62): 1.75 µM (inactive) | GI50 (OVCAR-5): 1.65 µM (inactive) | GI50 (SNB-19): 1.76 µM (inactive) | GI50 (SK-MEL-2): 1.71 µM (inactive) | GI50 (BT-549): 1.5 µM (inactive) | GI50 (NCI-H460): 1.81 µM (inactive) | GI50 (CCRF-CEM): 1.74 µM (inactive) | GI50 (EKVX): 1.67 µM (inactive) | GI50 (K562): 1.69 µM (inactive) | GI50 (SF-295): 1.54 µM (inactive) | GI50 (MCF7): 1.84 µM (inactive) | GI50 (KM12): 1.71 µM (inactive) | GI50 (TK-10): 1.51 µM (inactive) | GI50 (SN12C): 1.92 µM (inactive) | GI50 (HCT-15): 1.67 µM | GI50 (NCI-H522): 1.77 µM (inactive) | GI50 (HOP-62): 1.72 µM (inactive) | GI50 (OVCAR-8): 1.84 µM (inactive) | GI50 (LOX IMVI): 1.77 µM (inactive) | GI50 (MOLT-4): 1.9 µM (inactive) | GI50 (UACC-257): 1.67 µM (inactive) | GI50 (ACHN): 1.71 µM (inactive) | GI50 (OVCAR-3): 1.82 µM (inactive) | GI50 (MDA-MB-435): 1.79 µM (inactive) | GI50 (RPMI-8226): 1.96 µM (inactive) | GI50 (SK-MEL-5): 1.67 µM (inactive) | GI50 (U-251): 1.7 µM (inactive) | GI50 (RXF 393): 1.66 µM (inactive) | GI50 (MDA-N): 1.77 µM (inactive) | GI50 (SF-268): 1.93 µM (inactive) | GI50 (COLO 205): 1.83 µM (inactive) | GI50 (HL-60): 1.81 µM (inactive) | GI50 (SR): 1.75 µM (inactive) | GI50 (NCI-H226): 1.82 µM (inactive) | GI50 (SK-MEL-28): 1.67 µM (inactive) | GI50 (UO-31): 1.75 µM (inactive) | GI50 (PC-3): 1.63 µM (inactive) | GI50 (HT-29): 1.62 µM (inactive) | GI50 (SW-620): 1.75 µM (inactive) | GI50 (Malme-3M): 2.08 µM (inactive) | GI50 (SK-OV-3): 1.8 µM (inactive) | GI50 (A549): 1.66 µM (inactive) | GI50 (MDA-MB-231): 1.75 µM (inactive) | GI50 (786-0): 1.83 µM (inactive) | GI50 (M14): 1.6 µM (inactive) | GI50 (Hs-578T): 1.66 µM (inactive)
